From patent publication US20130296273A1, “TREATMENT OF BLOOD CANCER” (Threshold Pharmaceuticals, Inc., priority 2010, published 2013)
“Also recorded” adds a separate entry of the source.

Legend:
5T33vt cells = assay: Cell cycle analysis in 5T33vt cells; format: cell-based, murine; conditions: hypoxia selective manner
LP-1 cells = assay: Apoptosis in LP-1 cells; format: cell-based, human
Experimental: (§1) TH-302 (5 μM) decreased the accumulation of HIF1α in hypoxic RPMI-8226 cells. VEGFa secretion was reduced by TH-302 in 5T33vt cells. *p<0.05, **p<0.01, ***p<0.001, compared to 20% O2 (n=3).
(§2) By employing a set of defined gas mixtures (0%, 1%, 1.25%, 1.5%, 2%, 3%, 20% O2) for drug treatment of the multiple myeloma cells, the oxygen concentration dependent activation of TH-302 was tested in RPMI-8226, LP-1, MMS1 and 5T33vt multiple myeloma cells. […] As the O2 concentration was reduced to 0%, the fraction of apoptotic cells increased to about 70-75%.

5T33MMvv mouse = 5T33MMvv mouse multiple myeloma model, prophylactic treatment for 3 weeks; format: in vivo; conditions: for multiple myeloma cell apoptosis vs vehicle-treated mice: bone marrow
Experimental: 5T33MMvv mice were treated prophylactically with TH-302 for 3 weeks. From day 1, the following were observed. […] Therefore, the cancer cytotoxic effect of TH-302 was associated with the hypoxic nature of multiple myeloma cells in the bone marrow.

[1] = test system: BCL-2, BCL-xL, cleaved caspase-3, 8, 9 and PARP; assay: Western blotting of apoptosis proteins; format: cell-based
[2] = test system: anti-apoptotic and pro-apoptotic Bcl-2 family proteins; assay: Immunoblotting of Bcl-2 family proteins, TH-302, bortezomib and combination; format: cell-based
Experimental: To further determine the mechanism of induction of apoptosis by this combination, the effect of TH-302, bortezomib and the combination on anti-apoptotic and pro-apoptotic Bcl-2 family proteins using immunoblotting was tested.

[3] = test system: Karpas-707, LP-1, MMS1, and RPMI-8226 cells; assay: Cell cycle analysis in multiple myeloma cell lines under hypoxia; format: cell-based, human; conditions: hypoxic conditions; Karpas-707, LP-1, MMS1, RPMI-8226 cells
[4] = test system: cyclin D1/2/3, CDK4/6, p21cip-1, p27kip-1, pRb, CDK2 in RPMI-8226, LP-1, MMS1 and Karpas-707 multiple myeloma cells; assay: Western blotting of cell cycle machinery; format: cell-based, human
HIF1α in RPMI-8226 cells = assay: HIF1α accumulation/expression in hypoxic cells; format: cell-based, human
Experimental: as §1, §2

[5] = test system: human and murine multiple myeloma cells; assay: Flow cytometry analysis of apoptosis / toxicity in multiple myeloma cells; format: cell-based; conditions: also RPMI-8226, 5T33vt, MMS1, Karpas-707 cells
Experimental: as §2

ALL = assay: Clinical administration of TH-302 in advanced leukemia, ALL patients; format: in vivo; conditions: one ALL patient
Experimental: (§3) Clinical investigations were conducted to determine the safety, tolerability and clinically relevant disease responses of TH-302 in patients with acute leukemias, advanced phase chronic myelogenous leukemia (CML), high risk myelodysplastic syndromes, advanced myelofibrosis or relapsed/refractory chronic lymphocytic leukemia (CLL). TH-302 was administered as a 30 to 60 minute intravenous infusion daily for 5 days followed by 2 weeks off therapy. As needed, the 5 days of dosing could be spread out over 8 days. Patients who successfully completed a 3-week treatment cycle without evidence of significant treatment-related toxicity or progressive disease were continued on treatment and could receive treatment for up to six cycles.
(§4) Twenty-one patients have been treated in the study at TH-302 daily doses ranging from 120 mg/m^2 to 460 mg/m^2. All subjects had either AML or ALL and had generally received multiple prior therapies for their disease prior to enrolling for the study.

AML = assay: Clinical administration of TH-302 in advanced leukemia, AML patients; format: in vivo
Experimental: as §3, §4

[6] = test system: VEGFa secretion in 5T33vt cells; assay: VEGFa secretion; format: cell-based, murine
Experimental: as §1, §2

[7] = test system: RPMI-8226, LP-1, MMS1 and 5T33vt multiple myeloma cells; assay: Oxygen concentration dependent activation of TH-302 (defined gas mixtures); format: cell-based, human and murine
Experimental: as §2

naive mice = assay: Toxicity in TH-302 treated naive mice; format: in vivo, mouse; conditions: compared to vehicle-treated naive mice

## Cn1c(COP(=O)(NCCBr)NCCBr)cnc1[N+](=O)[O-] [TH-302]
5T33vt cells
  cell cycle arrest: induced Go/G1 cell cycle arrest
LP-1 cells; LP-1 cells under hypoxia, dose dependence
  apoptosis: triggered specific apoptosis in a dose-dependent manner
LP-1 cells; LP-1 cells, TH-302 5 μM
  apoptosis: induced apoptosis
5T33MMvv mouse; 12.5 mg/kg
  microvessel density (MVD) in the bone marrow vs vehicle-treated mice: 19 % decrease
  paraprotein secretion vs vehicle-treated mice: 32 % decrease
  multiple myeloma cell apoptosis vs vehicle-treated mice: 2.5 fold
5T33MMvv mouse; 25 mg/kg
  microvessel density (MVD) in the bone marrow vs vehicle-treated mice: 20 % decrease
  paraprotein secretion vs vehicle-treated mice: 77 % decrease
  multiple myeloma cell apoptosis vs vehicle-treated mice: 2.1 fold
5T33MMvv mouse; 50 mg/kg
  microvessel density (MVD) in the bone marrow vs vehicle-treated mice: 26 % decrease
  paraprotein secretion vs vehicle-treated mice: 54 % decrease
  multiple myeloma cell apoptosis vs vehicle-treated mice: 3.1 fold
[1]
  anti-apoptotic proteins BCL-2 and BCL-xL: down-regulation
  expression of cleaved proapoptotic protein caspase-3, 8, 9 and PARP: up-regulation
[2]
  anti-apoptotic Mcl-1: decreased
  expression of anti-apoptotic Bcl-2 and Bcl-xL: decreased
  pro-apoptotic BH-3 member Noxa and cleavage of BID: induced
[3]
  cell cycle arrest: induced Go/G1 cell cycle arrest
[4]
  CDK2 expression: remained undisturbed
  cyclin D1/2/3, CDK4/6, p21, p27 and pRb expression: down-regulating
HIF1α in RPMI-8226 cells; hypoxic RPMI-8226 cells, TH-302 5 μM
  accumulation of HIF1α: decreased
HIF1α in RPMI-8226 cells; hypoxic condition, similar in 5T33vt, LP-1, Karpas-707 cells
  expression of HIF1α: reduced
[5]; hypoxic conditions, flow cytometry
  apoptosis: induced dose-dependent apoptosis
[5]; normoxic conditions, even at high concentrations
  toxicity in normoxic conditions: very low toxicity
ALL; 170 mg/m^2/day, bone marrow biopsy after cycle 1
  disease response: partial response
ALL; 240 mg/m^2/day, after cycle 1
  disease response: stable disease
ALL; 330 mg/m^2/day, after cycle 1
  disease response: stable disease
AML; one AML patient started at 120 mg/m^2/day
  platelet count: gradually improving
AML; one AML patient started at 120 mg/m^2/day, after each cycle
  peripheral blast count: decreased
AML; one AML patient, 240 mg/m^2/day, after cycle 1
  disease response: stable disease
AML; two AML patients, 120 mg/m^2/day, iv daily for 5 days of 21 day cycle
  disease response: stable disease
[6]
  VEGFa secretion: reduced; also recorded: significantly decreased
[7]; O2 concentration reduced to 0%
  fraction of apoptotic cells: 70-75%
[7]; gas mixtures 0%, 1%, 1.25%, 1.5%, 2%, 3%, 20% O2
  threshold of activating TH-302: < 1.5 % O2
Naive mice
  toxicity in terms of body weight, HGB, RBC, WBC, HCT and MVD: no substantial toxicity

## CC(C)C[C@H](NC(=O)[C@H](Cc1ccccc1)NC(=O)c1cnccn1)B(O)O [bortezomib, reference compound]
[2]
  anti-apoptotic Mcl-1: accumulated
  expression of anti-apoptotic Bcl-2 and Bcl-xL: decreased
  pro-apoptotic BH-3 member Noxa and cleavage of BID: induced
